Test results from patent US7759345B2, “Antitumoral derivatives of ET-743” (priority 2001, dated 2010).

Assays:
[1] = test system: Liver
Description: (§9) Toxicity was asssessed by the methods reported in Toxicology in Vitro, 15 (2001) 571-577, J. Luber Narod et al.: “Evaluation of the use of in vitro methodolodies as tools for screening new compounds for potential in vivo toxicity”.

[2] = test system: Kidney
Description: as §9

[3] = test system: HT-29; experiment: Inhibition of cells growth by colorimetric assay (SRB), HT-29; format: cell-based; details: for GI50 / LC50 (concentration for 50% cell killing): Homo sapiens, HT-29, 48 h; for GI50 / HT-29 TGI: SRB assay, 48 hours exposure; for GI50: read-out: HT-29 GI50; for LC50 (concentration for 50% cell killing): read-out: HT-29 LC50, SRB assay, 48 hours exposure
How it was run: (§1)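 Compound in DMSO/EtOH/PBS vehicle was applied at 10 to 10^−8 μg/ml to attached cells (5×10^3/well, 18 h) for 48 h. Cells were then fixed with cold TCA and stained with 0.4% SRB in 1% acetic acid.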

[4] = test system: A-549; experiment: Inhibition of cells growth by colorimetric assay (SRB), A-549; format: cell-based; details: for GI50 / LC50 (concentration for 50% cell killing): Homo sapiens, A549, 48 h; for GI50 / A-549 TGI: SRB assay, 48 hours exposure; for GI50: read-out: A-549 GI50; for LC50 (concentration for 50% cell killing): read-out: A-549 LC50, SRB assay, 48 hours exposure
How it was run: as §1

[5] = test system: SK-MEL-28; experiment: Inhibition of cells growth by colorimetric assay (SRB), SK-MEL-28; format: cell-based; details: for GI50: read-out: MEL-28 GI50
How it was run: as §1

[6] = test system: Skeletal
Description: as §9

[7] = test system: IGROV-1; experiment: Inhibition of cells growth by colorimetric assay (SRB), IGROV-1; format: cell-based
How it was run: as §1

[8] = test system: HMEC1; experiment: Inhibition of cells growth by colorimetric assay (SRB), HMEC1; format: cell-based
Description: (§2) 2°.—Inhibition of Cells Growth by Colorimetric Assay.
(§3) A colorimetric type of assay, using sulforhodamine B (SRB) reaction has been adapted for a quantitative measurement of cell growth and viability [following the technique described by Philip Skehan, et al. (1990), New colorimetric cytotoxicity assay for anticancer drug screening, J. Natl. Cancer Inst., 82:1107-1112]
(§4) This form of the assay employs 96 well cell culture microplates of 9 mm diameter (Faircloth, 1988; Mosmann, 1983). Most of the cell lines are obtained from American Type Culture Collection (ATCC) derived from different human cancer types.
(§5) Cells are maintained in RPMI 1640 10% FBS, supplemented with 0.1 g/l penicillin and 0.1 g/l streptomycin sulfate and then incubated at 37° C., 5% CO2 and 98% humidity. For the experiments, cells were harvested from subconfluent cultures using trypsin and resuspended in fresh medium before plating.
(§6) Cells are seeded in 96 well microtiter plates, at 5×10^3 cells per well in aliquots of 195 μl medium, and they are allowed to attach to the plate surface by growing in drug free medium for 18 hours. Afterward, samples are added in aliquots of 5 μl in a ranging from 10 to 10^−8 μg/ml, dissolved in DMSO/EtOH/PBS (0.5:0.5:99). After 48 hours exposure, the antitumor effect are measured by the SRB methodology: cells are fixed by adding 50 μl of cold 50% (wt/vol) trichloroacetic acid (TCA) and incubating for 60 minutes at 4° C. Plates are washed with deionized water and dried. One hundred μl of SRB solution (0.4% wt/vol in 1% acetic acid) is added to each microtiter well and incubated for 10 minutes at room temperature. Unbound SRB is removed by washing with 1% acetic acid. Plates are air dried and bound stain is solubilized with Tris buffer. Optical densities are read on a automated spectrophotometric plate reader at a single wavelength of 490 nm.
(§7) The values for mean+/−SD of data from triplicate wells are calculated. Some parameters for cellular responses can be calculated: GI=growth inhibition, TGI=total growth inhibition (cytostatic effect) and LC=cell killing (cytotoxic effect).
(§8) Obtained results may predict the usefulness of a certain drug as a potential cancer treatment. For this technique, compounds which show GI50 values smaller than 10 μg/ml are selected to continue with further studies. GI50's data allow to predict that not only could a drug be cystostatic, but also it could have a potential in terms of tumor reduction.

[9] = test system: PANC-1; experiment: Inhibition of cells growth by colorimetric assay (SRB), PANC-1; format: cell-based
How it was run: as §1

[10] = test system: IGROV-ET; experiment: Inhibition of cells growth by colorimetric assay (SRB), IGROV-ET; format: cell-based
How it was run: as §1

[11] = test system: LNCaP; experiment: Inhibition of cells growth by colorimetric assay (SRB), LNCaP; format: cell-based
Description: as §2, §3, §4, §5, §6, §7, §8

[12] = test system: K-562; experiment: Inhibition of cells growth by colorimetric assay (SRB), K-562; format: cell-based
How it was run: as §1

[13] = test system: DU-145; experiment: Inhibition of cells growth by colorimetric assay (SRB), DU-145; format: cell-based
How it was run: as §1

[14] = test system: SK-OV-3; experiment: Inhibition of cells growth by colorimetric assay (SRB), SK-OV-3; format: cell-based
How it was run: as §1

[15] = test system: SK-BR-3; experiment: Inhibition of cells growth by colorimetric assay (SRB), SK-BR-3; format: cell-based
Description: as §2, §3, §4, §5, §6, §7, §8

[16] = test system: LoVo-Dox; experiment: Inhibition of cells growth by colorimetric assay (SRB), LoVo-Dox; format: cell-based
How it was run: as §1

[17] = test system: LoVo; experiment: Inhibition of cells growth by colorimetric assay (SRB), LoVo; format: cell-based
How it was run: as §1

[18] = Homo sapiens, SK-MEL-28, 48 h, SRB assay, 48 hours exposure

COc1cc2c(cc1O)CCN(C)[C@]21CS[C@@H]2c3c(OC(C)=O)c(C)c4c(c3[C@H](COC1=O)N1C2[C@@H]2N[C@@H](Cc3cc(C)c(OC)c(O)c32)[C@@H]1O)OCO4 (stereo partly shown) [Compound 217]
Toxicity Data Liver [1]: 1.07E-09 | Toxicity Data Kidney [2]: 2.66E-13 | GI50 [3]: 0.0131 µM | LC50 (concentration for 50% cell killing) [3]: 13.1 µM | HT-29 TGI [3]: 1.31E-05 | GI50 [4]: 0.0021 µM | LC50 (concentration for 50% cell killing) [4]: 0.0457 µM | A-549 TGI [4]: 6.16E-09 | GI50 [5, 18]: 0.000537 µM | Toxicity Data Skeletal [6]: 3.37E-12

COc1cc2c(cc1O)CCN[C@]21CS[C@@H]2c3c(O)c(C)c4c(c3[C@H](COC1=O)N1C2[C@H]2c3c(cc(C)c(OC)c3O)C[C@@H]([C@@H]1O)N2C)OCO4 (stereo partly shown) [Et-701]
GI50 ([7]; Homo sapiens, IGROV-1, 48 h, SRB assay, 48 hours exposure, read-out: IGROV GI50): 0.00233 µM | CC50 ([7]; Homo sapiens, IGROV-1, 48 h, read-out: IGROV LC50, SRB assay, 48 hours exposure): 0.0111 µM | IGROV TGI ([7]; SRB assay, 48 hours exposure): 5.08E-09 | GI50 ([8]; Homo sapiens, HMEC-1, 48 h, SRB assay, 48 hours exposure, read-out: HMEC-1 GI50): 0.00399 µM | LC50 ([8]; Homo sapiens, HMEC-1, 48 h, read-out: HMEC-1 LC50, SRB assay, 48 hours exposure): 4.57 µM | HMEC-1 TGI ([8]; SRB assay, 48 hours exposure): 1.35E-08 | GI50 ([9]; Homo sapiens, PANC-1, 48 h, SRB assay, 48 hours exposure, read-out: PANC-1 GI50): 0.00461 µM | LC50 (concentration for 50% net cell kill) ([9]; Homo sapiens, PANC-1, 48 h, read-out: PANC-1 LC50, SRB assay, 48 hours exposure): 0.206 µM | PANC-1 TGI ([9]; SRB assay, 48 hours exposure): 1.19E-08 | GI50 ([10]; Homo sapiens, 48 h, SRB assay, 48 hours exposure, read-out: IGROV-ET GI50): 0.0164 µM | CC50 ([10]; Homo sapiens, 48 h, read-out: IGROV-ET LC50, SRB assay, 48 hours exposure): 3.75 µM | IGROV-ET TGI ([10]; SRB assay, 48 hours exposure): 7.78E-08 | GI50 ([11]; Homo sapiens, LNCaP, 48 h, read-out: LNCAP GI50, SRB assay, 48 hours exposure): 0.000324 µM | CC50 ([11]; Homo sapiens, LNCaP, 48 h, read-out: LNCAP LC50, SRB assay, 48 hours exposure): 0.00528 µM | LNCAP TGI ([11]; SRB assay, 48 hours exposure): 1.56E-09 | GI50 ([12]; Homo sapiens, K562, 48 h, SRB assay, 48 hours exposure, read-out: K-562 GI50): 0.00133 µM | LC50 (50% cell killing) ([12]; Homo sapiens, K562, 48 h, read-out: K-562 LC50, SRB assay, 48 hours exposure): 0.0113 µM | K-562 TGI ([12]; SRB assay, 48 hours exposure): 3.50E-09 | GI50 [3]: 0.00424 µM | LC50 (concentration for 50% cell killing) [3]: 9.56 µM | HT-29 TGI [3]: 3.72E-08 | GI50 [4]: 0.00299 µM | LC50 (concentration for 50% cell killing) [4]: 0.0139 µM | A-549 TGI [4]: 7.06E-09 | GI50 ([13]; Homo sapiens, DU-145, 48 h, SRB assay, 48 hours exposure, read-out: DU-145 GI50): 0.00404 µM | CC50 ([13]; Homo sapiens, DU-145, 48 h, read-out: DU-145 LC50, SRB assay, 48 hours exposure): 2.97 µM | DU-145 TGI ([13]; SRB assay, 48 hours exposure): 9.70E-09 | GI50 ([14]; Homo sapiens, SK-OV-3, 48 h, SRB assay, 48 hours exposure, read-out: SK-OV3 GI50): 0.0021 µM | LC50 ([14]; Homo sapiens, SK-OV-3, 48 h, read-out: SK-OV3 LC50, SRB assay, 48 hours exposure): 9.85 µM | SK-OV3 TGI ([14]; SRB assay, 48 hours exposure): 1.08E-08 | GI50 ([15]; Homo sapiens, SK-BR-3, 48 h, SRB assay, 48 hours exposure, read-out: SK-BR3 GI50): 0.00221 µM | CC50 ([15]; Homo sapiens, SK-BR-3, 48 h, read-out: SK-BR3 LC50, SRB assay, 48 hours exposure): 0.0275 µM | SK-BR3 TGI ([15]; SRB assay, 48 hours exposure): 6.25E-09 | GI50 ([16]; Homo sapiens, 48 h, SRB assay, 48 hours exposure, read-out: LOVO-DOX GI50): 0.0506 µM | CC50 ([16]; Homo sapiens, 48 h, read-out: LOVO-DOX LC50, SRB assay, 48 hours exposure): 13.9 µM | LOVO-DOX TGI ([16]; SRB assay, 48 hours exposure): 5.46E-07 | GI50 [5, 18]: 0.00974 µM | CC50 ([5]; Homo sapiens, SK-MEL-28, 48 h, read-out: MEL-28 LC50, SRB assay, 48 hours exposure): 0.122 µM | MEL-28 TGI ([5]; SRB assay, 48 hours exposure): 3.50E-08 | GI50 ([17]; Homo sapiens, LoVo, 48 h, SRB assay, 48 hours exposure, read-out: LOVO GI50): 0.00456 µM | LC50 (concentration for 50% cell killing) ([17]; Homo sapiens, LoVo, 48 h, read-out: LOVO LC50, SRB assay, 48 hours exposure): 3.75 µM | LOVO TGI ([17]; SRB assay, 48 hours exposure): 1.18E-08
